In PubChem BioAssay (NCI):
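Where inhibition never reached the appropriate level, the endpoint shown equals the highest concentration tested. Otherwise, values were interpolated linearly from a five-concentration, 48-hour dose response in 96-well plates. At the TGI there is no net growth.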

Assays:
Experiment in all cases: inhibition of tumour cell growth, NCI panel, 48 h
HOP-92 NSCLC = tested on: HOP-92 NSCLC
A498 renal = tested on: A498 renal
HCC-2998 colon = tested on: HCC-2998 colon
SK-MEL-28 melanoma = tested on: SK-MEL-28 melanoma
NCI/ADR-RES ovarian = tested on: NCI/ADR-RES ovarian
PC-3 prostate = tested on: PC-3 prostate
HT29 colon = tested on: HT29 colon
KM12 colon = tested on: KM12 colon
NCI-H522 lung = tested on: NCI-H522 lung
MDA-MB-231 breast = tested on: MDA-MB-231 breast
MOLT-4 leukemia = tested on: MOLT-4 leukemia
DU-145 prostate = tested on: DU-145 prostate
MCF7 breast = tested on: MCF7 breast
RXF 393 renal = tested on: RXF 393 renal
SF-295 CNS = tested on: SF-295 CNS
MDA-MB-435 = tested on: MDA-MB-435
TK-10 renal = tested on: TK-10 renal
COLO 205 colon = tested on: COLO 205 colon
U251 CNS = tested on: U251 CNS
SW-620 colon = tested on: SW-620 colon
NCI-H23 lung = tested on: NCI-H23 lung
HCT-116 colon = tested on: HCT-116 colon
OVCAR-8 ovarian = tested on: OVCAR-8 ovarian
OVCAR-4 ovarian = tested on: OVCAR-4 ovarian
ACHN renal = tested on: ACHN renal
K-562 leukemia = tested on: K-562 leukemia
NCI-H226 lung = tested on: NCI-H226 lung
UO-31 renal = tested on: UO-31 renal
OVCAR-3 ovarian = tested on: OVCAR-3 ovarian
MDA-N = tested on: MDA-N
CCRF-CEM leukemia = tested on: CCRF-CEM leukemia
NCI-H460 lung = tested on: NCI-H460 lung
SN12C renal = tested on: SN12C renal
M14 melanoma = tested on: M14 melanoma
UACC-257 melanoma = tested on: UACC-257 melanoma
SNB-75 CNS = tested on: SNB-75 CNS
SR leukemia = tested on: SR leukemia
SF-268 CNS = tested on: SF-268 CNS
HS 578T breast = tested on: HS 578T breast
HCT-15 colon = tested on: HCT-15 colon
SK-MEL-5 melanoma = tested on: SK-MEL-5 melanoma
T-47D breast = tested on: T-47D breast
SNB-19 CNS = tested on: SNB-19 CNS
MALME-3M melanoma = tested on: MALME-3M melanoma
786-0 renal = tested on: 786-0 renal
IGROV1 ovarian = tested on: IGROV1 ovarian
OVCAR-5 ovarian = tested on: OVCAR-5 ovarian
HOP-62 NSCLC = tested on: HOP-62 NSCLC
UACC-62 melanoma = tested on: UACC-62 melanoma
RPMI-8226 leukemia = tested on: RPMI-8226 leukemia
HL-60(TB) leukemia = tested on: HL-60(TB) leukemia
LOX IMVI melanoma = tested on: LOX IMVI melanoma
SF-539 CNS = tested on: SF-539 CNS
SK-OV-3 ovarian = tested on: SK-OV-3 ovarian
EKVX NSCLC = tested on: EKVX NSCLC
CAKI-1 renal = tested on: CAKI-1 renal
A549 NSCLC = tested on: A549 NSCLC
SK-MEL-2 melanoma = tested on: SK-MEL-2 melanoma

For `Cc1ccc(S(=O)(=O)N2CCCN(S(=O)(=O)c3ccc(C)cc3)CC2)cc1`, the TGI (HOP-92 NSCLC) was greater than 100 µM, the TGI (A498 renal) was 69.2 µM and the TGI (HCC-2998 colon) was greater than 100 µM. For the same molecule, the TGI (SK-MEL-28 melanoma) was greater than 100 µM, the TGI (NCI/ADR-RES ovarian) was greater than 100 µM and the TGI (PC-3 prostate) was greater than 100 µM. The TGI (HT29 colon) was greater than 100 µM, the TGI (KM12 colon) was greater than 100 µM and the TGI (NCI-H522 lung) was greater than 100 µM. It also gave a TGI (MDA-MB-231 breast) greater than 100 µM, a TGI (MOLT-4 leukemia) greater than 100 µM and a TGI (DU-145 prostate) greater than 100 µM. The TGI (MCF7 breast) was greater than 100 µM, the TGI (RXF 393 renal) was greater than 100 µM and the TGI (SF-295 CNS) was greater than 100 µM. For the same molecule, the TGI (MDA-MB-435) was greater than 100 µM, the TGI (TK-10 renal) was greater than 100 µM and the TGI (COLO 205 colon) was greater than 100 µM. For the same molecule, the TGI (U251 CNS) was greater than 100 µM, the TGI (SW-620 colon) was greater than 100 µM and the TGI (NCI-H23 lung) was greater than 100 µM. For the same molecule, the TGI (HCT-116 colon) was greater than 100 µM, the TGI (OVCAR-8 ovarian) was greater than 100 µM and the TGI (OVCAR-4 ovarian) was greater than 100 µM. The TGI (ACHN renal) was greater than 100 µM, the TGI (K-562 leukemia) was greater than 100 µM and the TGI (NCI-H226 lung) was greater than 100 µM. The TGI (UO-31 renal) was greater than 100 µM, the TGI (OVCAR-3 ovarian) was greater than 100 µM and the TGI (MDA-N) was greater than 100 µM. For the same molecule, the TGI (CCRF-CEM leukemia) was greater than 100 µM, the TGI (NCI-H460 lung) was greater than 100 µM and the TGI (SN12C renal) was greater than 100 µM. It also gave a TGI (M14 melanoma) greater than 100 µM, a TGI (UACC-257 melanoma) greater than 100 µM and a TGI (SNB-75 CNS) greater than 100 µM. For the same molecule, the TGI (SR leukemia) was greater than 100 µM, the TGI (SF-268 CNS) was greater than 100 µM and the TGI (HS 578T breast) was greater than 100 µM. The TGI (HCT-15 colon) was greater than 100 µM, the TGI (SK-MEL-5 melanoma) was greater than 100 µM and the TGI (T-47D breast) was greater than 100 µM. It also gave a TGI (SNB-19 CNS) greater than 100 µM.

Molecule `c1ccc(C[n+]2ccc3c(c2)CCCC3)cc1` has a TGI (HOP-92 NSCLC) greater than 100 µM, a TGI (HCC-2998 colon) greater than 100 µM and a TGI (SK-MEL-28 melanoma) greater than 100 µM. It also gave a TGI (NCI/ADR-RES ovarian) greater than 100 µM, a TGI (PC-3 prostate) greater than 100 µM and a TGI (HT29 colon) greater than 100 µM. For the same molecule, the TGI (KM12 colon) was greater than 100 µM, the TGI (MALME-3M melanoma) was greater than 100 µM and the TGI (786-0 renal) was greater than 100 µM. The TGI (MDA-MB-231 breast) was greater than 100 µM, the TGI (MOLT-4 leukemia) was greater than 100 µM and the TGI (DU-145 prostate) was greater than 100 µM. The TGI (MCF7 breast) was greater than 100 µM, the TGI (IGROV1 ovarian) was greater than 100 µM and the TGI (RXF 393 renal) was greater than 100 µM. The TGI (OVCAR-5 ovarian) was greater than 100 µM, the TGI (HOP-62 NSCLC) was greater than 100 µM and the TGI (SF-295 CNS) was greater than 100 µM. For the same molecule, the TGI (UACC-62 melanoma) was greater than 100 µM, the TGI (MDA-MB-435) was greater than 100 µM and the TGI (RPMI-8226 leukemia) was greater than 100 µM. It also gave a TGI (HL-60(TB) leukemia) greater than 100 µM, a TGI (LOX IMVI melanoma) greater than 100 µM and a TGI (SF-539 CNS) greater than 100 µM. The TGI (TK-10 renal) was greater than 100 µM, the TGI (COLO 205 colon) was greater than 100 µM and the TGI (U251 CNS) was greater than 100 µM. It also gave a TGI (SW-620 colon) greater than 100 µM, a TGI (NCI-H23 lung) greater than 100 µM and a TGI (SK-OV-3 ovarian) greater than 100 µM. The TGI (HCT-116 colon) was greater than 100 µM, the TGI (OVCAR-8 ovarian) was greater than 100 µM and the TGI (OVCAR-4 ovarian) was greater than 100 µM. For the same molecule, the TGI (ACHN renal) was greater than 100 µM, the TGI (K-562 leukemia) was greater than 100 µM and the TGI (NCI-H226 lung) was greater than 100 µM. The TGI (UO-31 renal) was greater than 100 µM, the TGI (OVCAR-3 ovarian) was greater than 100 µM and the TGI (MDA-N) was greater than 100 µM. The TGI (EKVX NSCLC) was 85.8 µM, the TGI (CAKI-1 renal) was greater than 100 µM and the TGI (CCRF-CEM leukemia) was greater than 100 µM. For the same molecule, the TGI (NCI-H460 lung) was greater than 100 µM, the TGI (SN12C renal) was greater than 100 µM and the TGI (M14 melanoma) was greater than 100 µM. The TGI (A549 NSCLC) was greater than 100 µM, the TGI (UACC-257 melanoma) was greater than 100 µM and the TGI (SNB-75 CNS) was greater than 100 µM. For the same molecule, the TGI (SR leukemia) was greater than 100 µM, the TGI (SF-268 CNS) was greater than 100 µM and the TGI (HS 578T breast) was greater than 100 µM. The TGI (HCT-15 colon) was greater than 100 µM, the TGI (SK-MEL-5 melanoma) was greater than 100 µM and the TGI (T-47D breast) was greater than 100 µM. The TGI (SNB-19 CNS) was greater than 100 µM and the TGI (SK-MEL-2 melanoma) was greater than 100 µM.

Work on `Clc1ccc(Cl)c(N=Nc2cc3c4c(c2)CCCN4CCC3)c1` yielded a TGI (HOP-92 NSCLC) greater than 10 µM, a TGI (A498 renal) greater than 10 µM and a TGI (HCC-2998 colon) greater than 10 µM. The TGI (SK-MEL-28 melanoma) was greater than 10 µM, the TGI (NCI/ADR-RES ovarian) was greater than 10 µM and the TGI (PC-3 prostate) was greater than 10 µM. For the same molecule, the TGI (HT29 colon) was greater than 10 µM, the TGI (KM12 colon) was greater than 10 µM and the TGI (MALME-3M melanoma) was greater than 10 µM. The TGI (NCI-H522 lung) was greater than 10 µM, the TGI (786-0 renal) was greater than 10 µM and the TGI (MDA-MB-231 breast) was greater than 10 µM. For the same molecule, the TGI (MOLT-4 leukemia) was greater than 10 µM, the TGI (DU-145 prostate) was greater than 10 µM and the TGI (MCF7 breast) was greater than 10 µM. The TGI (IGROV1 ovarian) was greater than 10 µM, the TGI (RXF 393 renal) was greater than 10 µM and the TGI (HOP-62 NSCLC) was greater than 10 µM. For the same molecule, the TGI (SF-295 CNS) was greater than 10 µM, the TGI (UACC-62 melanoma) was greater than 10 µM and the TGI (MDA-MB-435) was greater than 10 µM. It also gave a TGI (RPMI-8226 leukemia) greater than 10 µM, a TGI (HL-60(TB) leukemia) greater than 10 µM and a TGI (LOX IMVI melanoma) greater than 10 µM. It also gave a TGI (SF-539 CNS) greater than 10 µM, a TGI (TK-10 renal) greater than 10 µM and a TGI (COLO 205 colon) greater than 10 µM. For the same molecule, the TGI (U251 CNS) was greater than 10 µM, the TGI (SW-620 colon) was greater than 10 µM and the TGI (NCI-H23 lung) was greater than 10 µM. For the same molecule, the TGI (SK-OV-3 ovarian) was greater than 10 µM, the TGI (HCT-116 colon) was greater than 10 µM and the TGI (OVCAR-8 ovarian) was greater than 10 µM. For the same molecule, the TGI (OVCAR-4 ovarian) was greater than 10 µM, the TGI (ACHN renal) was greater than 10 µM and the TGI (K-562 leukemia) was greater than 10 µM. The TGI (NCI-H226 lung) was greater than 10 µM, the TGI (UO-31 renal) was greater than 10 µM and the TGI (OVCAR-3 ovarian) was greater than 10 µM. It also gave a TGI (MDA-N) greater than 10 µM, a TGI (EKVX NSCLC) greater than 10 µM and a TGI (CAKI-1 renal) greater than 10 µM. For the same molecule, the TGI (CCRF-CEM leukemia) was greater than 10 µM, the TGI (NCI-H460 lung) was greater than 10 µM and the TGI (SN12C renal) was greater than 10 µM. For the same molecule, the TGI (M14 melanoma) was greater than 10 µM, the TGI (A549 NSCLC) was greater than 10 µM and the TGI (UACC-257 melanoma) was greater than 10 µM. The TGI (SNB-75 CNS) was greater than 10 µM, the TGI (SR leukemia) was greater than 10 µM and the TGI (SF-268 CNS) was greater than 10 µM. The TGI (HS 578T breast) was greater than 10 µM, the TGI (HCT-15 colon) was greater than 10 µM and the TGI (SK-MEL-5 melanoma) was greater than 10 µM. It also gave a TGI (T-47D breast) greater than 10 µM, a TGI (SNB-19 CNS) greater than 10 µM and a TGI (SK-MEL-2 melanoma) greater than 10 µM.
